Laboratory results: the CheMixHub viscosity set

Assay: xn = mol fraction of the nth substance listed

ClCCCCCCCl + Cc1cc(C)cc(C)c1
viscosity [mPa·s], 101 kPa
Details | x1 = 0.1049 | x1 = 0.2004 | x1 = 0.2961 | x1 = 0.4028 | x1 = 0.4994 | x1 = 0.5986 | x1 = 0.7 | x1 = 0.7998 | x1 = 0.9005
308.15 K | 0.645 | 0.714 | 0.798 | 0.896 | 0.995 | 1.106 | 1.221 | 1.352 | 1.488
313.15 K | 0.615 | 0.678 | 0.752 | 0.842 | 0.929 | 1.031 | 1.137 | 1.264 | 1.394
318.15 K | 0.586 | 0.651 | 0.709 | 0.795 | 0.877 | 0.972 | 1.071 | 1.182 | 1.289

C=C(C)C(=O)OC + ClC(Cl)Cl
303.15 K, 101 kPa
Details | viscosity [mPa·s]
x1 = 0.0522 | 0.5364
x1 = 0.1301 | 0.5505
x1 = 0.3102 | 0.5767
x1 = 0.4132 | 0.5808
x1 = 0.5161 | 0.5747
x1 = 0.7435 | 0.5589
x1 = 0.8591 | 0.542

CC(O)CNCC(C)O (centres undefined) + O
viscosity [mPa·s]
Details | 293.15 K | 298.15 K | 303.15 K | 308.15 K | 313.15 K | 318.15 K | 323.15 K
101 kPa, x1 = 0.023 | – | – | – | – | – | 1.095 | –
101 kPa, x1 = 0.03 | – | – | – | 1.695 | – | – | –
101.3 kPa, x1 = 0.0071 | 1.261 | 1.097 | 0.958 | 0.834 | 0.738 | – | 0.597
101.3 kPa, x1 = 0.0148 | 1.61 | 1.37 | 1.211 | 1.046 | 0.914 | – | 0.775
101.3 kPa, x1 = 0.0329 | 2.803 | 2.363 | 2.08 | 1.803 | 1.54 | – | 1.2

CCCCCCCCCCCC(=O)[O-].[Na+] + CCCCCCCC(=O)O
100 kPa, x1 = 0.2
Details | viscosity [mPa·s]
293.15 K | 60.29
298.15 K | 47.97
303.15 K | 38.68
308.15 K | 31.58
313.15 K | 26.09
318.15 K | 21.79
323.15 K | 18.38

C=C(C)C(=O)OC + CCCCCO
viscosity [mPa·s], 101.3 kPa
Details | 298.15 K | 308.15 K
x1 = 0.0449 | 3.018 | 2.317
x1 = 0.1463 | 2.195 | 1.733
x1 = 0.2463 | 1.658 | 1.34
x1 = 0.3476 | 1.29 | 1.064
x1 = 0.4311 | 1.077 | 0.9
x1 = 0.5019 | 0.941 | 0.793
x1 = 0.5439 | 0.876 | 0.74
x1 = 0.6459 | 0.753 | 0.641
x1 = 0.7431 | 0.674 | 0.575
x1 = 0.8477 | 0.619 | 0.527
x1 = 0.9445 | 0.591 | 0.501

CCCCCCCCCCCCCCCCCCO + CCCO
298.15 K, 101 kPa
Details | viscosity [mPa·s]
x1 = 0.0016 | 2.071
x1 = 0.0028 | 2.011
x1 = 0.0106 | 2.164
x1 = 0.0212 | 2.332

CC1(c2ccccc2)OC1C#N (centres undefined) + ClC(Cl)(Cl)Cl
101 kPa, x1 = 0.024
Details | viscosity [mPa·s]
293.15 K | 1.041
298.15 K | 0.964
303.15 K | 0.902
313.15 K | 0.8
323.15 K | 0.723

C=C(C)C(=O)OC + CCCCO
viscosity [mPa·s], 101.3 kPa
Details | 298.15 K | 308.15 K
x1 = 0.05 | 2.22 | 1.726
x1 = 0.1489 | 1.7 | 1.355
x1 = 0.2479 | 1.341 | 1.092
x1 = 0.3487 | 1.086 | 0.9
x1 = 0.4499 | 0.906 | 0.761
x1 = 0.5024 | 0.835 | 0.705
x1 = 0.5479 | 0.783 | 0.664
x1 = 0.6441 | 0.699 | 0.596
x1 = 0.7437 | 0.639 | 0.546
x1 = 0.8469 | 0.602 | 0.513
x1 = 0.9453 | 0.585 | 0.496
